Entries after “also recorded” stand apart in the source; their conditions may differ.
Legend:
[1] = system: Col10a1-RFP reporter in limb bud mesenchymal cells; assay: High throughput screen, Col10a1 reporter in BMP-4 stimulated limb mesenchymal cells; assay type: cell-based, mouse; conditions: ~170,000 compounds screened
Experimental: The gp130 co-receptor LIFR is expressed on a subset of superficial chondrocytes throughout human ontogeny. […] Given the known (and mostly detrimental roles) of IL-6 family cytokines on articular chondrocytes, a high throughput screen was performed to identify small molecules that could potentially modulate gp130 signaling. In adult mice, IL-6/gp130 signaling drives Col10a1 expression and hypertrophy, which has been strongly associated with OA progression; ˜170,000 compounds were thus screened for their ability to prevent increases in Col10-mCherry fluorescence in mouse limb mesenchymal cells stimulated with BMP-4, a strong driver of hypertrophy (FIG. 2).

[2] = system: human fetal articular chondrocytes; assay: Alkaline phosphatase / hypertrophy in fetal articular chondrocytes; assay type: cell-based
[3] = system: adult pig articular chondrocytes; assay: Western blot of signaling proteins (pSTAT3, MYC, MAPK, AKT, NF-κB) in pig articular chondrocytes; assay type: cell-based
Experimental: (A) Class 1 molecules (marked by red arrows) activate STAT3 and MYC signaling pathways wile Class 2 molecules (blue arrows) have no stimulatory effects on STAT3 and MYC signaling in chondrocytes as determined by western blot analysis. (B) Structures of the most prominent Class 1 and Class 2 molecules. […] All drugs were tested at 10 μM and assessed using Western Blot.
All drugs tested at 10 μM and assessed using Western Blot.
To begin to address the mechanism of action of RCGD 423, adult pig chondrocytes were incubated with the drug, IL-6 family cytokines or the pro-catabolic cytokines TNF-α and IL-1β and measured levels of various proteins downstream of these cytokines that are known to drive catabolic responses (FIG. 3).
Firstly, RCGD 423 was a hit from a library; this made the depth of the discovery surrounding the technology less comprehensive. Additionally, the physical properties of RCGD 423 (solubility, potency, functional groups) could be improved. Significant gains in these areas could potentially result in a first-in-class injectable for the treatment of post-traumatic OA. Moreover, the potential risks associated with promoting MYC stabilization and proliferation in gp130^+ cells as well as large increases in active STAT3 protein was of concern. […] These compounds were then screened in adult pig articular chondrocytes and cartilage explants, seeking compounds that could inhibit the catabolic effects of OSM but not drive increases in MYC and pSTAT3 protein levels. […] Together, these preliminary data identify CX-011 (B8) as a highly anti-inflammatory, anti-catabolic alternative to RCGD 423, with increased “drug-like” properties and reduced potential molecular liabilities.

gp130 = gp130 null Ba/F3 cells transfected with full-length gp130 or ΔD2 mutant; assay type: cell-based; conditions: WT gp130 vs ΔD2 mutant
Experimental: Based on this, it was hypothesized that RCGD 423 acts through gp130 by promoting stable homodimers in the absence of ligand. To confirm that RCGD 423 acts through gp130, the gp130 null cell line Ba/F3 cells was used. Ba/F3 cells were transfected with either full-length gp130 or a mutant gp130 lacking domain 2 (ΔD2), which contains the predicted binding site for RCGD 423 (FIG. 7). […] To verify the specificity of RCGD 423 in vivo, the compound was injected into rat knees in the presence of the small molecule gp130 inhibitor SC144 or a blocking antibody specific for domain 2 of gp130. […] The ability of RCGD 423 to act via inducing formation of gp130 homodimers was then examined by expressing tagged versions of gp130 in 293T cells. In this system, only homodimeric complexes can contain both tagged versions of gp130 (FIG. 9).

NF-κB protein = assay: OSM or IL-6 induced NF-κB in human adult articular chondrocytes; assay type: cell-based; conditions: in combination with OSM or IL-6
gp130-IL-6R complexes = target: T1, gp130-IL-6R complexes (Homo sapiens, UniProt P40189); assay: Receptor competition, gp130-Flag pull-down, IL-6R; assay type: cell-based; conditions: in the presence of IL-6
T1 construct: Flag; expressed in transfected cells; host or cells: adult human articular chondrocytes
T1 sequence (P40189 23-918): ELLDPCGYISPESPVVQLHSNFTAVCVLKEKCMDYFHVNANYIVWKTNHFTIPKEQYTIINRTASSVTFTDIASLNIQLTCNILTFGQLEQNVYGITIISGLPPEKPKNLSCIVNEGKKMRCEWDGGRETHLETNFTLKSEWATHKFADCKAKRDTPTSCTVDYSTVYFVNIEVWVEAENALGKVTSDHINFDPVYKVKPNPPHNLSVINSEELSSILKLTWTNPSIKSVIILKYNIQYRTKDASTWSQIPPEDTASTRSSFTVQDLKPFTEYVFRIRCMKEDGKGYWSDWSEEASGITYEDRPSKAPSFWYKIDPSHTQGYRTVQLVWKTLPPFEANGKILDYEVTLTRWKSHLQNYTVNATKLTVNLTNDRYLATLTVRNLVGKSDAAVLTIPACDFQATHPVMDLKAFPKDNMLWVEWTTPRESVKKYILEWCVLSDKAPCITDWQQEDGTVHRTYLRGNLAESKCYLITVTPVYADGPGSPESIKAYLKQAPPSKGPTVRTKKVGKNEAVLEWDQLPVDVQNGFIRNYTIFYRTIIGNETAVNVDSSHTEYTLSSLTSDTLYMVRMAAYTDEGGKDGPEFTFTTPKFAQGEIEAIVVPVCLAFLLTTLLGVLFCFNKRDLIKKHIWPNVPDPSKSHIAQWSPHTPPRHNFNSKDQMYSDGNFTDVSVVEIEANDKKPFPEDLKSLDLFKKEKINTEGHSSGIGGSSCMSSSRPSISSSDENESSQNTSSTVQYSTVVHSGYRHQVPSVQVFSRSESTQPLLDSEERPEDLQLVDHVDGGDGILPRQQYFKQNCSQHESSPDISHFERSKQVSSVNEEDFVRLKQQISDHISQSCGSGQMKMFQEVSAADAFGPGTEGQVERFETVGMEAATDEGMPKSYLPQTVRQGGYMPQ
Experimental: (§1) Adult human chondrocytes transfected with gp130-Flag were incubated with various concentrations of RCGD 423 in the presence of IL-6 or OSM; levels of immoprecipitated IL-6R or OSMR were used to calculate the dissociation constant (Kd).
(§2) This property would be of great interest due to the pro-inflammatory and pro-catabolic effects of these cytokines in the joint space. […] To assess whether RCGD 423 could directly compete for gp130 occupancy, human adult articular chondrocytes were transfected with tagged gp130 and then pulled down associated proteins±RCGD 423 and/or IL-6.

OSMR and gp130 = target: T2, OSMR and gp130 (Homo sapiens, UniProt P40189); assay: Receptor competition, gp130-Flag pull-down, OSMR; assay type: cell-based; conditions: in the presence of OSM; IP-FLAG, WB-OSMR
T2 construct: FLAG; expressed in transfected cells; host or cells: adult human chondrocytes
T2 sequence (P40189 23-918): T1 sequence (P40189 23-918)
Experimental: as §1
Adult human chondrocytes; IP-FLAG AB (transfected with gp130 FLAG plasmid), WB-OSMR.
as §2

adult human PBMCs = assay: ERK and NF-κB downstream of OSM and IL-6 in PBMCs; assay type: cell-based
Experimental: Accordingly, the ability of RCGD 423 to suppress signaling downstream of IL-6 and OSM in synoviocytes and peripheral blood mononuclear cells was assessed (FIG. 14).

## Brc1ccc(Nc2nc(-c3ccccc3)cs2)cc1 [RCGD 423]
[1]
  ability to prevent increases in Col10-mCherry fluorescence (Col10a1 reporter): primary hit
[2]
  increases in alkaline phosphatase, a marker of hypertrophy: could prevent increases in alkaline phosphatase; also recorded: ability of the compound to inhibit hypertrophy was confirmed
[3]; Western blot, analogs at 10 μM
  levels of active STAT3 (pSTAT3) and MYC proteins: increased levels of active STAT3 and MYC proteins; also recorded: shared increase in active STAT3 (pSTAT3) and MYC proteins
[3]; adult pig articular chondrocytes
  activation of the MAPK, AKT and NF-κB pathways: did not evidence the same result; also recorded: does not
gp130
  gp130 signaling in gp130−/− Ba/F3 cells: full-length gp130 is required for the activity of RCGD 423; also recorded: only increase gp130 signaling in the presence of RCGD 423 and WT gp130
NF-κB protein
  increases in NF-κB protein / signaling downstream of OSM and IL-6: significantly reduced increases in NF-κB protein; also recorded: reduces signaling downstream of OSM and IL-6
gp130-IL-6R complexes
  gp130-IL-6R complexes / competition with IL-6R for gp130 occupancy: gp130-IL-6R complexes were significantly reduced; also recorded: directly competes with OSMR and IL-6R for gp130 occupancy
OSMR and gp130
  competition with OSMR for gp130 occupancy / OSMR-gp130 interaction: directly competes with OSMR and IL-6R for gp130 occupancy
Adult human PBMCs
  increases in ERK and NF-κB levels downstream of OSM and IL-6: inhibits increases in ERK and NF-κB levels
